Measured values reported in ChEMBL document CHEMBL4371076 (J Med Chem, 2019).
Activity calls are given as the source filed them.

Tests used:
[1] = molecular target: T1, Sodium channel protein type 9 subunit alpha (Homo sapiens, UniProt Q15858); experiment: Inhibition of human Nav1.7 expressed in HEK293 cells after 600 secs at -60 mV holding potential by ion works barracuda population patch clamp method; type: cell-based
Target sequence in this assay (Q15858 whole entry): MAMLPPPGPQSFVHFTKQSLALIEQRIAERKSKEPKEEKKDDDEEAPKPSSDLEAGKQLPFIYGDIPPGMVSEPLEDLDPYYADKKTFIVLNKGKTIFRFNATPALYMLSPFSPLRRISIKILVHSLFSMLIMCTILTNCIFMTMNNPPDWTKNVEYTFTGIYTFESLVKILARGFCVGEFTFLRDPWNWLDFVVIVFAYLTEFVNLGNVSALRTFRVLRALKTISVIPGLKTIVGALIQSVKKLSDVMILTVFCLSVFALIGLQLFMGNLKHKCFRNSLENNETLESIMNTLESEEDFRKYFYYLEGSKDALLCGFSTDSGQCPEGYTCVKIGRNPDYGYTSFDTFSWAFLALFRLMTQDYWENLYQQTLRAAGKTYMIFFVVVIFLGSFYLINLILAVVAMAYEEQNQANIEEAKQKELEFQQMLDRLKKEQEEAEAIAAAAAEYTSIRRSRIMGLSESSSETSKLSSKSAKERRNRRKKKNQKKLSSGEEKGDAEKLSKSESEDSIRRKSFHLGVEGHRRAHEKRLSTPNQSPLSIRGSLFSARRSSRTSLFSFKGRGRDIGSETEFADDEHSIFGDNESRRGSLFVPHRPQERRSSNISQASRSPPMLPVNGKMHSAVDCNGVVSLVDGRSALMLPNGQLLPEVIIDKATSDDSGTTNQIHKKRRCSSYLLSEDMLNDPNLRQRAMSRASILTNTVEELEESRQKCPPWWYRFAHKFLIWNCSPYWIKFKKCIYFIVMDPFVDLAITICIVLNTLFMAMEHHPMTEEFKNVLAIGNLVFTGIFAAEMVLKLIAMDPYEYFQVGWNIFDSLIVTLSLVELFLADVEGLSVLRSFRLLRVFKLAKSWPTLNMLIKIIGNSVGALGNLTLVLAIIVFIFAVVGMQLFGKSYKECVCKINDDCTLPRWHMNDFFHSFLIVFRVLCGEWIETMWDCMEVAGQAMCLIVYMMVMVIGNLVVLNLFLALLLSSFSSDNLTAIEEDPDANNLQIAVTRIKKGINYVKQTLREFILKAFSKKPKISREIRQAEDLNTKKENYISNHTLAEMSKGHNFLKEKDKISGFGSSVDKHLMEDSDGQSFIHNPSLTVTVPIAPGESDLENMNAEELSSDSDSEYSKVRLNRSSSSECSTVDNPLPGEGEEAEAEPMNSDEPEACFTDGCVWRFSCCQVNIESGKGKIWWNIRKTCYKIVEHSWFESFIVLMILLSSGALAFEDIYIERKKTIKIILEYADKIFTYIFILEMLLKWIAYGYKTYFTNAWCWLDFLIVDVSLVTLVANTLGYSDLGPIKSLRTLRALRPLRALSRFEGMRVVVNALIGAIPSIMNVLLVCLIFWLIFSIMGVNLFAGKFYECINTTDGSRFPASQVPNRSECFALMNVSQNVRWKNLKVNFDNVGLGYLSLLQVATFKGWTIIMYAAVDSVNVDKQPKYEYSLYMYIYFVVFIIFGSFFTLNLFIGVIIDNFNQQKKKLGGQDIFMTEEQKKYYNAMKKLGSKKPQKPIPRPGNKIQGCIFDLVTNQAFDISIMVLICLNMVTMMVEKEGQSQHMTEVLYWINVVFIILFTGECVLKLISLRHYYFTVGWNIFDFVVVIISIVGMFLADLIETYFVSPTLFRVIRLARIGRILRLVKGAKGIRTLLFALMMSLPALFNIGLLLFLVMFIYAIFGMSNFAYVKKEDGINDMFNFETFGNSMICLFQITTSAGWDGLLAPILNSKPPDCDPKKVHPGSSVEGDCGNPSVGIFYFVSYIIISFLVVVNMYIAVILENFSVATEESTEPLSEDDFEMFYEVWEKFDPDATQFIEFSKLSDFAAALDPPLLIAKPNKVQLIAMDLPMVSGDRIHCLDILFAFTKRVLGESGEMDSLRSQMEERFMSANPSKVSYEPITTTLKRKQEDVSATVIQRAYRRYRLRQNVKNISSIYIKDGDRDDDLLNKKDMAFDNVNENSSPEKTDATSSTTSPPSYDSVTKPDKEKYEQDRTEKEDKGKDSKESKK

[2] = molecular target: Sodium channel protein type 5 subunit alpha (Homo sapiens, UniProt Q14524); experiment: Inhibition of human Nav1.5 expressed in HEK293 cells after 600 secs at -50 mV holding potential by ion works barracuda population patch clamp method; type: cell-based
[3] = molecular target: T1, Sodium channel protein type 9 subunit alpha; experiment: Inhibition of recombinant human Nav1.7 expressed in HEK293 cells at -70 mV holding potential by patch clamp electrophysiology method; type: cell-based
Target sequence in this assay (Q15858 whole entry): as above

[4] = Metabolic stability in mouse liver microsomes assessed as parent compound remaining at 0.5 uM after 10 mins; type: ADME, Microsome; details: read-out: Stability
[5] = Fraction unbound in human plasma; type: ADME, cell-free
[6] = Permeability of the compound at pH 5.5 by PAMPA; type: ADME; details: read-out: permeability
[7] = Permeability of the compound at pH 7.4 by PAMPA; type: ADME; details: read-out: permeability
[8] = Permeability from apical to basolateral side in human Caco2 cells; type: ADME, cell-based; details: Caco-2, read-out: permeability
[9] = Efflux ratio of permeability in human Caco2 cells; type: ADME, cell-based; details: Caco-2
[10] = molecular target: T2, Cytochrome P450 2B6 (Homo sapiens, UniProt P20813); experiment: Inhibition of CYP2B6 in human liver microsomes; type: ADME
T2 sequence (P20813 whole entry): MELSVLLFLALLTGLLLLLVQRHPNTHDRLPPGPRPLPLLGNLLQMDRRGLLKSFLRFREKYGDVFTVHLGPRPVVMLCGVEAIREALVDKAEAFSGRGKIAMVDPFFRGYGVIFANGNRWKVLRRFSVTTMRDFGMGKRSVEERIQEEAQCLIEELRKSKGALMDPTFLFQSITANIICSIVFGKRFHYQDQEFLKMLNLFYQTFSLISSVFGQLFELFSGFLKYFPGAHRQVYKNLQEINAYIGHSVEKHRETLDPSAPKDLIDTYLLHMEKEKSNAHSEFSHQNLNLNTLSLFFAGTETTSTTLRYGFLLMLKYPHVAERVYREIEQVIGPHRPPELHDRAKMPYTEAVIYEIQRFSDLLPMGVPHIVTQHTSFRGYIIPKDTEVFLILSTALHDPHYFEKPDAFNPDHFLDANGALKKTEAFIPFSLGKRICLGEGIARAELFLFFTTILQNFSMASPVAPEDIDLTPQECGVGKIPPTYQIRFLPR

[11] = molecular target: Cytochrome P450 2C19 (Homo sapiens, UniProt P33261); experiment: Inhibition of CYP2C19 in human liver microsomes; type: ADME
Cytochrome P450 2C19, sequence (P33261 whole entry): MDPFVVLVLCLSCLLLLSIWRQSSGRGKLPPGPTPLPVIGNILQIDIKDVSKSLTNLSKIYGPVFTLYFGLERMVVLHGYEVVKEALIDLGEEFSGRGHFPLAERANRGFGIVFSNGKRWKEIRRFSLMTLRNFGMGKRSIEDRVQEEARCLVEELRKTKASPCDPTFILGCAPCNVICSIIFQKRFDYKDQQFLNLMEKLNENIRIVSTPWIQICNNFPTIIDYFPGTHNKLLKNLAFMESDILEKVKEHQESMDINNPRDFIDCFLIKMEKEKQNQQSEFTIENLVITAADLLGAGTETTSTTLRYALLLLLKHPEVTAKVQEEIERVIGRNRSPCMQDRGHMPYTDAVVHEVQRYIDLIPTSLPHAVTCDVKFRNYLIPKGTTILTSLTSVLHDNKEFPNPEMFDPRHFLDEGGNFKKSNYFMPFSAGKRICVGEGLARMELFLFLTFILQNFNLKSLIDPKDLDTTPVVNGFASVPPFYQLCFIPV

[12] = molecular target: T3, Cytochrome P450 2D6 (Homo sapiens, UniProt P10635); experiment: Inhibition of CYP2D6 in human liver microsomes; type: ADME
T3 sequence (P10635 whole entry): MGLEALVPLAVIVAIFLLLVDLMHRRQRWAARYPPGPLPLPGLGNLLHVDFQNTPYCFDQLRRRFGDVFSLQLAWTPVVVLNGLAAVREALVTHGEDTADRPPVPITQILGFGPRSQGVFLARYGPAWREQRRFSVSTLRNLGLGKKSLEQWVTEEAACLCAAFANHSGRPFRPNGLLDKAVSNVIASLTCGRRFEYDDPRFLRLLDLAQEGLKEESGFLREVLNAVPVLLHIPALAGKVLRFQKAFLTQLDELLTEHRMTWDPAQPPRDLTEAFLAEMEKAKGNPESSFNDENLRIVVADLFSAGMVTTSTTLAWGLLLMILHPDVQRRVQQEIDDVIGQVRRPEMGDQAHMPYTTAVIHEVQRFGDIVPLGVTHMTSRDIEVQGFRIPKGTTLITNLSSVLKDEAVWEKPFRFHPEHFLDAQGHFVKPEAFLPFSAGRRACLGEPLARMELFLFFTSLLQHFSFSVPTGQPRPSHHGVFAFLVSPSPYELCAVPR

[13] = molecular target: T4, Cytochrome P450 3A4 (Homo sapiens, UniProt P08684); experiment: Inhibition of CYP3A4 in human liver microsomes; type: ADME
T4 sequence (P08684 whole entry): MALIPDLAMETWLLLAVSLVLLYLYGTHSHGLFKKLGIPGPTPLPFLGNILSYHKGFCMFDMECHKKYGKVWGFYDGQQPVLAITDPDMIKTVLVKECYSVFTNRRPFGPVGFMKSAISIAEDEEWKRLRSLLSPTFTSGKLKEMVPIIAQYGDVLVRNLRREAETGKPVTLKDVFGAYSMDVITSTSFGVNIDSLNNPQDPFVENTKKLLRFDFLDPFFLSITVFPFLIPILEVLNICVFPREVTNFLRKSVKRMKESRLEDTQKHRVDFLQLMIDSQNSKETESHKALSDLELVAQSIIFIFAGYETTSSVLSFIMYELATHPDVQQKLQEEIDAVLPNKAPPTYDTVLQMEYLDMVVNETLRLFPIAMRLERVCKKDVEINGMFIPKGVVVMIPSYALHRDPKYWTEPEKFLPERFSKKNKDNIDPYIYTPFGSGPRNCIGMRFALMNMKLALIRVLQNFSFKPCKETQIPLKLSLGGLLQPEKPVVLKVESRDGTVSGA

[14] = molecular target: Cytochrome P450 2C9 (Homo sapiens, UniProt P11712); experiment: Time-dependant inhibition of CYP2C9 in human liver microsomes; type: ADME
Cytochrome P450 2C9, sequence (P11712 whole entry): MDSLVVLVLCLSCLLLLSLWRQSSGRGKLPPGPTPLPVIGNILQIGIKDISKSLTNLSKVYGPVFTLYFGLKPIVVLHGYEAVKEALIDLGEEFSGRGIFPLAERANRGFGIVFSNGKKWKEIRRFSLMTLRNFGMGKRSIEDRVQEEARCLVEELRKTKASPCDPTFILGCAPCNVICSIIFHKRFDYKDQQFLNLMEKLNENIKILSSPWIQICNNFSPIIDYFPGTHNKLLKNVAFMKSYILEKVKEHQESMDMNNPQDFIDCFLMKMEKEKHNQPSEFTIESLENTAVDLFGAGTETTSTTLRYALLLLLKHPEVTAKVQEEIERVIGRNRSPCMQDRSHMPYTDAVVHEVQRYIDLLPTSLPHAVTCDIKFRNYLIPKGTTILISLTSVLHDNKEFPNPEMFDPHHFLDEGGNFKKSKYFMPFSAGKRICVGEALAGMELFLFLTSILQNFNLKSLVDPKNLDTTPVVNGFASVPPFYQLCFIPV

[15] = molecular target: T3, Cytochrome P450 2D6; experiment: Time-dependant inhibition of CYP2D6 in human liver microsomes; type: ADME
[16] = molecular target: T4, Cytochrome P450 3A4; experiment: Time-dependant inhibition of CYP3A4 in human liver microsomes; type: ADME
[17] = molecular target: T5, Nuclear receptor subfamily 1 group I member 2 (Homo sapiens, UniProt O75469); experiment: Inhibition of PXR (unknown origin); type: ADME
T5 sequence (O75469 whole entry): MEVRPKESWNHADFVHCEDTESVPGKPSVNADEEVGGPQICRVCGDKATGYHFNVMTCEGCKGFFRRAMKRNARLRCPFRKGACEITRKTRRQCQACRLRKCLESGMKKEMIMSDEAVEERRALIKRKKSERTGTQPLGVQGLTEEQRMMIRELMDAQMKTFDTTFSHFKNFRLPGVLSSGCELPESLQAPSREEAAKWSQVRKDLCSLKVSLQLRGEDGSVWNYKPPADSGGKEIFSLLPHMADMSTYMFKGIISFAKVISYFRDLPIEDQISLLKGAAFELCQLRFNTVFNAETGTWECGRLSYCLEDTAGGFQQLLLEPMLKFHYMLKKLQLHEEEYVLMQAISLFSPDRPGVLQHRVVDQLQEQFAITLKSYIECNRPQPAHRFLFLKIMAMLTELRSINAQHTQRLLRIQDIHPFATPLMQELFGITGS

[18] = molecular target: Sodium channel protein type 9 subunit alpha (Mus musculus, UniProt Q62205); experiment: Inhibition of Nav1.7 in mouse DRG neurons at -70 mV holding potential by patch clamp electrophysiology method
[19] = molecular target: T1, Sodium channel protein type 9 subunit alpha; experiment: Inhibition of recombinant human Nav1.7 expressed in HEK293 cells assessed as association time constant at -70 mV holding potential by patch clamp electrophysiology method; type: cell-based
Target sequence in this assay (Q15858 whole entry, looked up): as the sequence (Q15858 whole entry) above

[20] = molecular target: T1, Sodium channel protein type 9 subunit alpha; experiment: Inhibition of recombinant human Nav1.7 expressed in HEK293 cells assessed as dissociation time constant at -120 mV holding potential by patch clamp electrophysiology method; type: cell-based
Target sequence in this assay (Q15858 whole entry, looked up): as the sequence (Q15858 whole entry) above

[21] = tested on: Mus musculus; experiment: Analgesic activity in CD1 mouse model of CFA-induced thermal hyperalgesia assessed as reduction in thermal response latency at 30 mg/kg, ip administered 72 hrs post CFA challenge and measured at 180 mins post dose by Hargreave's test; type: functional, organism-based
[22] = Unbound plasma concentration in CD1 mouse model of CFA-induced thermal hyperalgesia at 3 to 30 mg/kg, ip; type: ADME, organism-based; details: in vivo
[23] = Ratio of unbound plasma concentration in CD1 mouse model of CFA-induced thermal hyperalgesia at 3 to 30 mg/kg, ip to IC50 for recombinant mouse Nav1.7 expressed in HEK293 cells at -70 mV holding potential by patch clamp electrophysiology method; type: ADME, organism-based; details: in vivo
[24] = tested on: Mus musculus; experiment: Reduction in mechanoreceptor-mediated afferent transmission in mouse assessed as effect on sural nerve mechanosensitivity at 30 mg/kg, ip measured at 5 to 120 mins post dose at 1.6 mN threshold pressure; type: functional, organism-based
[25] = tested on: Mus musculus; experiment: Reduction in mechanoreceptor-mediated afferent transmission in mouse assessed as effect on sural nerve mechanosensitivity by measuring decrease in mechanically elicited afferent firing at 30 mg/kg, ip measured at 90 to 120 mins post dose at 98 to 980 mN threshold pressure; type: functional, organism-based
[26] = Plasma concentration in mouse model of mechanoreceptor-mediated afferent transmission at 30 mg/kg, ip after 2 hrs; type: ADME, organism-based

IC50 [1] | IC50 [3] | remaining at 10 min, 0.5 µM [4] | fraction unbound [5] | Papp [6] | Papp [7] | Papp A→B [8] | efflux ratio [9] | IC50 [10] | IC50 [11] | IC50 [12] | IC50 [13] | TDI [14] | TDI [15] | TDI [16] | IC50 [17] | IC50 [18] | TIME [19] | TIME [20] | SMILES | IC50 [2] | also measured
0.108 µM | 0.008 µM | 100% | < 0.001 | 44.3 ×10⁻⁶ cm/s | 21.6 ×10⁻⁶ cm/s | < 1.5 ×10⁻⁶ cm/s | > 5.5 | 9.7 µM | 28 µM | > 40 µM | > 40 µM | Not Active | Not Active | Not Active | > 50 µM | 0.011 µM | 0.00267 h | 0.0125 h | CC(C)COc1ncc(-c2cn(C)c3cc(C(=O)NS(C)(=O)=O)ccc23)cc1Cl | 19 µM | Activity [21]: inactive; Cp(f) [22]: 0.126 µM; Ratio [23]: 4 to 5; Activity [24]: inactive; Activity [25]: Active; concentration at 2 h [26]: 89 µM
0.089 µM | 0.025 µM | 99% | 0.008 | 80.2 ×10⁻⁶ cm/s | 16.4 ×10⁻⁶ cm/s | 6.1 ×10⁻⁶ cm/s | 3.1 | > 40 µM | 4 µM | > 40 µM | 15 µM | Not Active | Not Active | Not Active | > 50 µM | 0.014 µM | 0.00336 h | 0.0275 h | CC(C)COc1ccc(-c2cn(C)c3cc(C(=O)NS(C)(=O)=O)c(F)cc23)cn1 | 16 µM | Activity [21]: inactive; Cp(f) [22]: 0.532 µM; Ratio [23]: 4 to 5; Activity [24]: inactive; Activity [25]: Active; concentration at 2 h [26]: 57 µM
